# Peptide text beside a SMILES is read from it.
# Assays:
# [1] = system: Human Microvascular Endothelial Cells; experiment: Human microvascular endothelial cell (HMVEC) migration assay, modified Boyden chamber; type: cell-based; conditions: activators 15 ng/ml bFGF/VEGF, 4 hours at 37 °C
# Description: The human microvascular endothelial (HMVEC) migration assay was run according to the procedure of S. S. Tolsma, O. V. Volpert, D. J. Good, W. F. Frazier, P. J. Polverini and N. Bouck, J. Cell Biol. 122, 497-511 (1993).
# The HMVEC migration assay was carried out using Human Microvascular Endothelial Cells-Dermal (single donor) and Human Microvascular Endothelial Cells, (neonatal). The BCE or HMVEC cells were starved overnight in DME containing 0.1 % bovine serum albumin (BSA). Cells were then harvested with trypsin and resuspended in DME with 0.1 % BSA at a concentration of 1.5 X 10^6 cells per ml. Cells were added to the bottom of a 48 well modified Boyden chamber (Nucleopore Corporation, Cabin John, MD). The chamber was assembled and inverted, and cells were allowed to attach for 2 hours at 37 °C to polycarbonate chemotaxis membranes (5 µm pore size) that had been soaked in 0.1% gelatin overnight and dried. The chamber was then reinverted, and test substances (total volume of 50 µl), including activators, 15 ng/ml bFGF/VEGF, were added to the wells of the upper chamber. The apparatus was incubated for 4 hours at 37 °C. Membranes were recovered, fixed and stained (Diff Quick, Fisher Scientific) and the number of cells that had migrated to the upper chamber per […] high power fields counted. Background migration to DME + 0.1 BSA was subtracted and the data reported as the number of cells migrated per 10 high power fields (400X) or, when results from multiple experiments were combined, as the percent inhibition of migration compared to a positive control.
# [2] = system: Rat Cornea Neovascularization; experiment: Rat cornea neovascularization (bFGF/Hydron pellet implantation); type: in vivo, Sprague Dawley rats; conditions: day seven post-implantation
# Description: […] Louis, MO) were pipetted into the tip of a sterile Teflon rod. After drying for 1-2 hours, the pellets were stored at 4 °C.
# A small (about 2 mm) radial incision at 1 mm from the center of the cornea was performed in anesthetized Sprague Dawley rats. With a curved iris spatula, an intrastromal pocket was made to a distance of 1 mm from the limbus-the circular blood vessels that surround the cornea. A single pellet was implanted. Antibiotic ointment (neosporin) was applied post surgery to the operated eye to prevent infection and to decrease inflammation.
# At day seven post-implantation, neovascularization was measured through a slitlamp biomicroscopy (Nikon NS-1), connected to an image analysis system (Leica Qwin). The response was calculated by colorimetrically detecting the area of new blood vessels, and calculating the new vessel surface area in µm^2.
molecule,measurement,setting,value
"CCC[C@H](NC(=O)[C@@H](NC(=O)[C@H](NC(=O)[C@@H](NC(=O)CNC(=O)CN(C)C(C)=O)C(C)C)[C@H](C)CC)[C@@H](C)O)C(=O)N[C@H](C(=O)N[C@@H](CCCNC(=N)N)C(=O)N1CCC[C@H]1C(=O)NC)[C@@H](C)CC [Example 3, N-Ac-Sar-Gly-Val-D-Ile-Thr-Nva-Ile-Arg-ProNHCH3] (HELM PEPTIDE1{[ac].[Sar].G.V.[dI].T.[Nva].I.R.P.[CN[*:1]]}$$$$V2.0)",% Inhib. @ 20 nM,[1],56.0%
"CCC[C@H](NC(=O)[C@@H](NC(=O)[C@H](NC(=O)[C@@H](NC(=O)CNC(=O)CN(C)C(C)=O)C(C)C)[C@H](C)CC)[C@@H](C)O)C(=O)N[C@H](C(=O)N[C@@H](CCCNC(=N)N)C(=O)N1CCC[C@H]1C(=O)NCC)[C@@H](C)CC [Example 1, N-Ac-Sar-Gly-Val-D-Ile-Thr-Nva-Ile-Arg-ProNHCH2CH3] (HELM PEPTIDE1{[ac].[Sar].G.V.[dI].T.[Nva].I.R.P.[CCN[*:1]]}$$$$V2.0)",% Inhibition,"[2]; dose 5 µM in pellet with 100 ng bFGF, 5 corneas",74.8%
same,% Inhibition,"[2]; dose 6 µM in pellet with 100 ng bFGF, 4 corneas",71.5%
same,% Inhibition,"[2]; dose 10 µM in pellet with 100 ng bFGF, 6 corneas",92.6%
"CCCCCCCC[C@H](NC(=O)[C@@H](NC(=O)[C@H](NC(=O)[C@@H](NC(=O)CNC(=O)CN(C)C(C)=O)C(C)C)[C@H](C)CC)[C@@H](C)O)C(=O)N[C@H](C(=O)N[C@@H](CCCNC(=N)N)C(=O)N1CCC[C@H]1C(=O)NCC)[C@@H](C)CC [Example 50, N-Ac-Sar-Gly-Val-D-Ile-Thr-Octylgly-Ile-Arg-ProNHCH2CH3] (HELM PEPTIDE1{[ac].[Sar].G.V.[dI].T.[CCCCCCCC[C@H](N[*:1])C(=O)[*:2]].I.R.P.[CCN[*:1]]}$$$$V2.0)",% Inhib. @ 20 nM,[1],71.6%
"CCC[C@H](NC(=O)[C@@H](NC(=O)[C@H](NC(=O)[C@@H](NC(=O)CNC(=O)CN(C)C(=O)CCCCCNC(C)=O)C(C)C)[C@H](C)CC)[C@@H](C)O)C(=O)N[C@H](C(=O)N[C@@H](CCCNC(=N)N)C(=O)N1CCC[C@H]1C(=O)NCC)[C@@H](C)CC [Example 63, N-[6-N'-Acetyl-(CH2)5C(O)]-Sar-Gly-Val-D-Ile-Thr-Nva-Ile-Arg-ProNHCH2CH3] (HELM PEPTIDE1{[ac].[O=C(CCCCCN[*:1])[*:2]].[Sar].G.V.[dI].T.[Nva].I.R.P.[CCN[*:1]]}$$$$V2.0)",% Inhib. @ 10 nM,[1],82.4%
N-Cyclohexylacetyl-Sar-Gly-Val-D-Ile-Tlu-Nva-Ile-Arg-ProNHCH2CH3 [Example 52],% Inhib. @ 20 nM,[1],46.5%
"CCC[C@H](NC(=O)[C@@H](NC(=O)[C@H](NC(=O)[C@@H](NC(=O)CNC(=O)CN(C)C(C)=O)C(C)C)[C@H](C)CC)[C@@H](C)O)C(=O)N[C@H](C(=O)N[C@@H](CCCNC(=N)N)C(=O)N1CCC[C@H]1C(=O)NCCC1CCCCC1)[C@@H](C)CC [Example 12, N-Ac-Sar-Gly-Val-D-Ile-Thr-Nva-Ile-Arg-ProNHCH2CH2-cyclohexyl] (HELM PEPTIDE1{[ac].[Sar].G.V.[dI].T.[Nva].I.R.P.[C1CCC(CCN[*:1])CC1]}$$$$V2.0)",% Inhib. @ 20 nM,[1],55.8%
N-Ac-Sar-Gly-Val-D-Ile-Thr-Nva-Ile-Arg-ProNHethyl-1-(R)-cyclohexyl [Example 8],% Inhib. @ 10 nM,[1],88.2%

# Reference: EP1078002B1, “PEPTIDE ANTIANGIOGENIC DRUGS” (ABBOTT LABORATORIES, priority 1998, dated 1999)
